Key:
Type in all cases: in vivo
[1] = system: broad leaf weeds (Lindernia pyxidaria and Monochoria vaginalis); test: Test Example 2: herbicidal effect test by treatment during growing period in paddy rice cultivation (seven days after seeding); conditions: for Herbicidal rate (%) Lindernia pyxidaria / Herbicidal rate (%) Monochoria vaginalis: 120 g/10a active ingredient, assessed 14 days after treatment, dry weight vs untreated area
Description: (§1) This test was conducted in a double system per one agent solution concentration area, and the herbicidal rates (%) were determined by the following equation (Math. 1) on 14 days after the treatment with the agents. Herbicidal Rate (%)={1-(Average Dry Weight (g) of Plant of Treated Area)/(Average Dry Weight (g) of Plant of Untreated Area)}×100 [Math. 1]
(§2) Herbicidal Effect Test by Treatment During Growing Period in Paddy Rice Cultivation
(§3) Wagner pots with an area of 1/10000 ares were filled with a paddy soil, and after adding water, a compound fertilizer (N:P:K=17:17:17) was mixed, followed by soil puddling. Then, Echinochloa crus-galli, broad leaf weeds (Lindernia pyxidaria and Monochoria vaginalis) and Scirpus juncoides, 30 seeds each, were sown in a depth of 0 to 1 cm. Water was poured immediately after seeding, and the water depth was kept at about 3 cm. The subsequent management was conducted in a glass greenhouse. Emulsions prepared using the compounds in Table 4 below according to Formulation Example 5 were diluted with water seven days after seeding, and a certain amount of the water-diluted agent solutions were dropped. The converted amount of the applied active ingredient corresponded to 120 g per 10 ares. The test was conducted in a double system per one agent solution concentration area, and the herbicidal rates (%) were determined by the equation (Math. 1) on 14 days after the treatment with the agents. […] The compound numbers in Table 4 are the same as those in Table 1 and Table 2 above.

Echinochloa crus-galli [2] = test: as above; conditions: for Herbicidal rate (%) Echinochloa crus-galli: 120 g/10a active ingredient, assessed 14 days after treatment, dry weight vs untreated area
Description: as §1, §2, §3

Scirpus juncoides [3] = test: as above; conditions: for Herbicidal rate (%) Scirpus juncoides: 120 g/10a active ingredient, assessed 14 days after treatment, dry weight vs untreated area
Description: as §1, §2, §3

[4] = system: broad leaf weeds (Lindernia pyxidaria and Monochoria vaginalis); test: Test Example 1: herbicidal effect test by treatment of rice paddy soil (immediately after seeding)
Description: (§4) Herbicidal Effect Test by Treatment of Rice Paddy Soil
(§5) Wagner pots with an area of 1/10000 ares were filled with a paddy soil, and after adding water, a compound fertilizer (N:P:K=17:17:17) was added, followed by soil puddling. Then, Echinochloa crus-galli, broad leaf weeds (Lindernia pyxidaria and Monochoria vaginalis) and Scirpus juncoides, 30 seeds each, were sown in a depth of 0 to 1 cm. Water was poured immediately after seeding, and the water depth was kept at about 3 cm. The subsequent management was conducted in a glass greenhouse. Immediately after that, emulsions prepared using the compounds in Table 3 below according to Formulation Example 5 were diluted with water, and a certain amount of the water-diluted agent solutions were dropped. The converted amount of the applied active ingredient corresponded to 120 g per 10 ares.
as §1
(§6) The compound numbers in Table 3 are the same as those in Table 1 and Table 2 above.

Echinochloa crus-galli [5] = test: as above
Description: as §4, §5, §1, §6

Scirpus juncoides [6] = test: as above
Description: as §4, §5, §1, §6

[7] = Lindernia pyxidaria, 120 g/10a active ingredient, dry weight vs untreated area, 14 days after treatment
[8] = Monochoria vaginalis, 120 g/10a active ingredient, dry weight vs untreated area, 14 days after treatment
[9] = 120 g/10a active ingredient, dry weight vs untreated area, 14 days after treatment
[10] = 120 g/10a, rated 14 days after treatment, paddy soil pots
[11] = 120 g/10a active ingredient, 14 days after treatment, dry weight vs untreated area

SMILES | Herbicidal rate (%) Lindernia pyxidaria ([1]; Lindernia pyxidaria) [%] | Herbicidal rate (%) Monochoria vaginalis ([1]; Monochoria vaginalis) [%] | Herbicidal rate (%) Echinochloa crus-galli (Echinochloa crus-galli [2]) [%] | Herbicidal rate (%) Scirpus juncoides (Scirpus juncoides [3]) [%] | Herbicidal rate (%) Lindernia pyxidaria [4, 7] [%] | Herbicidal rate (%) Monochoria vaginalis [4, 8] [%] | Herbicidal rate (%) Echinochloa crus-galli (Echinochloa crus-galli [5]; [9]) [%] | Herbicidal rate (%) Scirpus juncoides (Scirpus juncoides [6]; [9]) [%] | herbicidal rate, Lindernia pyxidaria ([1]; Lindernia pyxidaria, 120 g/10a, rated 14 days after treatment, paddy soil pots) [%] | herbicidal rate, Monochoria vaginalis ([1]; Monochoria vaginalis, 120 g/10a, rated 14 days after treatment, paddy soil pots) [%] | herbicidal rate, Echinochloa crus-galli (Echinochloa crus-galli [2]; [10]) [%] | herbicidal rate, Scirpus juncoides (Scirpus juncoides [3]; [10]) [%] | Herbicidal rate (%) Lindernia pyxidaria ([4]; Lindernia pyxidaria, 120 g/10a active ingredient, 14 days after treatment, dry weight vs untreated area) [%] | Herbicidal rate (%) Monochoria vaginalis ([4]; Monochoria vaginalis, 120 g/10a active ingredient, 14 days after treatment, dry weight vs untreated area) [%] | Herbicidal rate (%) Echinochloa crus-galli (Echinochloa crus-galli [5]; [11]) [%] | Herbicidal rate (%) Scirpus juncoides (Scirpus juncoides [6]; [11]) [%]
C#CCn1oc(=O)c(Cc2ccccc2N(S(=O)(=O)C(F)(F)F)S(=O)(=O)C(F)(F)F)c1C [Compound 1-988] | 100 | 100 | 90 | 90 | 100 | 100 | 90 | 90 | – | – | – | – | – | – | – | –
Cc1c(Cc2ccccc2NS(=O)(=O)C(F)(F)F)c(=O)on1C(C)c1ccc(F)cc1 (stereo not shown) [Compound 1-204] | 80 | 80 | 80 | 80 | 90 | 90 | 100 | 90 | – | – | – | – | – | – | – | –
CC(C)c1c(Cc2ccccc2N(S(=O)(=O)C(F)(F)F)S(=O)(=O)C(F)(F)F)c(=O)on1C(C)C [Compound 1-69] | 40 | 60 | 60 | 60 | 70 | 70 | 80 | 90 | – | – | – | – | – | – | – | –
Cc1c(Cc2ccccc2NS(=O)(=O)C(F)(F)F)c(=O)on1Cc1cccc(C(F)(F)F)c1 [Compound 1-193] | 80 | 80 | 60 | 70 | 100 | 100 | 90 | 90 | – | – | – | – | – | – | – | –
Cc1c(Cc2ccccc2NS(=O)(=O)C(F)(F)F)c(=O)on1Cc1ccc(F)cc1F [Compound 1-199] | 80 | 80 | 90 | 80 | 100 | 100 | 100 | 90 | – | – | – | – | – | – | – | –
Cc1c(Cc2c(Cl)cccc2N(S(=O)(=O)C(F)(F)F)S(=O)(=O)C(F)(F)F)c(=O)on1C(C)C [Compound 1-47] | 40 | 40 | 40 | 70 | 70 | 70 | 40 | 80 | – | – | – | – | – | – | – | –
Cc1c(Cc2ccccc2N(S(=O)(=O)C(F)(F)F)S(=O)(=O)C(F)(F)F)c(=O)on1C(C)c1ccc(F)cc1 (stereo not shown) [Compound 1-1031] | 100 | 100 | 90 | 100 | 100 | 100 | 100 | 100 | – | – | – | – | – | – | – | –
Cc1c(Cc2ccccc2NS(=O)(=O)C(F)(F)F)c(=O)on1Cc1ccc(F)c(Cl)c1 [Compound 1-202] | 60 | 60 | 40 | 40 | 100 | 90 | 100 | 80 | – | – | – | – | – | – | – | –
CSCCCn1oc(=O)c(Cc2ccccc2NS(=O)(=O)C(F)(F)F)c1C [Compound 1-167] | 90 | 90 | 90 | 90 | 90 | 80 | 100 | 90 | – | – | – | – | – | – | – | –
C=CCn1oc(=O)c(Cc2ccccc2NS(=O)(=O)C(F)(F)F)c1C [Compound 1-135] | 40 | 60 | 80 | 90 | 90 | 60 | 90 | 90 | – | – | – | – | – | – | – | –
Cc1c(Cc2ccccc2N(S(=O)(=O)C(F)(F)F)S(=O)(=O)C(F)(F)F)c(=O)on1Cc1cccc(C(F)(F)F)c1 [Compound 1-1020] | 40 | 40 | 60 | 40 | 80 | 40 | 50 | 40 | – | – | – | – | – | – | – | –
Cc1c(Cc2ccccc2NS(=O)(=O)C(F)(F)F)c(=O)on1C(C)c1cccc(Cl)c1 (stereo not shown) [Compound 1-206] | 80 | 90 | 60 | 80 | 100 | 100 | 90 | 90 | – | – | – | – | – | – | – | –
Cc1c(Cc2ccccc2N(S(=O)(=O)C(F)(F)F)S(=O)(=O)C(F)(F)F)c(=O)on1CC1CCCCC1 [Compound 1-994] | 60 | 80 | 90 | 80 | 100 | 60 | 90 | 90 | – | – | – | – | – | – | – | –
COCCn1oc(=O)c(Cc2ccccc2N(S(=O)(=O)C(F)(F)F)S(=O)(=O)C(F)(F)F)c1C [Compound 1-996] | 70 | 80 | 70 | 90 | 80 | 80 | 90 | 90 | – | – | – | – | – | – | – | –
Cc1c(Cc2ccccc2N(S(=O)(=O)C(F)(F)F)S(=O)(=O)C(F)(F)F)c(=O)on1Cc1ccccc1F [Compound 1-1012] | 80 | 80 | 60 | 90 | 100 | 100 | 90 | 100 | – | – | – | – | – | – | – | –
CCOC(=O)N(c1ccccc1Cc1c(C)n(CC(C)C)oc1=O)S(=O)(=O)C(F)(F)F [Compound 1-608] | 60 | 80 | 90 | 80 | 70 | 80 | 70 | 90 | – | – | – | – | – | – | – | –
Cc1c(Cc2ccccc2N(S(=O)(=O)C(F)(F)F)S(=O)(=O)C(F)(F)F)c(=O)on1Cc1cccs1 [Compound 1-1054] | – | – | – | – | – | – | – | – | 100 | 100 | 90 | 90 | 100 | 100 | 90 | 90

— US11109593B2, “Isoxazolin-5-one derivative and herbicide containing same as active ingredient” (HOKKO CHEMICAL INDUSTRY CO., LTD., priority 2017, dated 2021)
